Measured values published in BindingDB's records for patent US20240034743 (Qilu Pharmaceutical, 2024).

The molecules below were run against Epidermal growth factor receptor (Homo sapiens, UniProt P00533) (assay: Not found).
Text: Not found

Chain of Epidermal growth factor receptor (P00533 whole entry): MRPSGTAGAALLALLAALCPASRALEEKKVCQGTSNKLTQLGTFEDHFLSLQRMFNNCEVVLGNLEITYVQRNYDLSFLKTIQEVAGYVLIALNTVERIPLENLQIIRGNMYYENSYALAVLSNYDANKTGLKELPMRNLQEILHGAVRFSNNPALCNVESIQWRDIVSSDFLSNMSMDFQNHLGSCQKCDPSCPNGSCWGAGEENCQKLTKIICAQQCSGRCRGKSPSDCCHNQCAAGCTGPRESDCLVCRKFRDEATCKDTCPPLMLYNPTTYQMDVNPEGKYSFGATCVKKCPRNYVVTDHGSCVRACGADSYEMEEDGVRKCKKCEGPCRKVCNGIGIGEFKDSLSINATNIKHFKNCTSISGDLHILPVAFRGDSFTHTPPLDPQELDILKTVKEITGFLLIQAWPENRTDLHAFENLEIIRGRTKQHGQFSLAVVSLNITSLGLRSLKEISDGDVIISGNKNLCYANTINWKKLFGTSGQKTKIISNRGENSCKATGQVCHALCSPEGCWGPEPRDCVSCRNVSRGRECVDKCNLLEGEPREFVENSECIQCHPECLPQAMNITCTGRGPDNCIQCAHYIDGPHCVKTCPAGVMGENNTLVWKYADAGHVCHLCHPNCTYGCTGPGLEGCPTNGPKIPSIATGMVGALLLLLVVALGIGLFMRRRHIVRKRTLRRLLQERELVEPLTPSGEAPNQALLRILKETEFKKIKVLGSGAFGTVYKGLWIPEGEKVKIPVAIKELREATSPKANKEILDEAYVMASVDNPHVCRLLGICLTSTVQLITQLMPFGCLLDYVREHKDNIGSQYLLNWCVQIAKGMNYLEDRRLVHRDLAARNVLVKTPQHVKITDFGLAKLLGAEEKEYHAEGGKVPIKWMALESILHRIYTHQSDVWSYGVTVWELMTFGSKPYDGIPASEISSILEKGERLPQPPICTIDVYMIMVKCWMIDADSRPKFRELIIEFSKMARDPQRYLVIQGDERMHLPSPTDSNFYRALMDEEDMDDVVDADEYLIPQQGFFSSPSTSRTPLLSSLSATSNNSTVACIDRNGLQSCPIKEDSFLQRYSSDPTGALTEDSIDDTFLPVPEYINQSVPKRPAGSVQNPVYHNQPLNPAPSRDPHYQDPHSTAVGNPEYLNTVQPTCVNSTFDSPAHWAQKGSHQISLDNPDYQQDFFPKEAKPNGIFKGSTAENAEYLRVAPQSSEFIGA

SMILES | IC50 [nM]
COc1cc2c(cc1Nc1ncc(Br)c(Nc3ccc4nccnc4c3C(N)=O)n1)-c1cnn(C)c1CCN2C(C)C [US20240034743, Compound 115] | > 1000
COc1cc2c(cc1Nc1ncc(Br)c(Nc3ccc4nccnc4c3P(C)(C)=O)n1)-c1cnn(C)c1CCN2C1CC2(C1)CN(C)C2 [US20240034743, Compound 89] | < 1
COc1cc2c(cc1Nc1ncc(Br)c(Nc3ccc4nccnc4c3P(C)(C)=O)n1)-c1cnn(C)c1CCN2C1CN(CC2CC2)C1 [US20240034743, Compound 70] | < 1
COc1cc2c(cc1Nc1ncc(Br)c(Nc3ccc4nccnc4c3NS(C)(=O)=O)n1)-c1cnn(C)c1CCN2CC(C)C [US20240034743, Compound 133] | < 1
COc1cc2c(cc1Nc1ncc(Br)c(Nc3ccc4nccnc4c3P(C)(C)=O)n1)-c1cnn(C)c1CCN2C1CC1 [US20240034743, Compound 74] | < 1
COc1cc2c(cc1Nc1ncc(Cl)c(Nc3ccc4nccnc4c3P(C)(C)=O)n1)-c1cnn(C)c1CCN2C [US20240034743, Compound 13] | < 1
COc1cc2c(cc1Nc1ncc(Br)c(Nc3ccccc3P(C)(C)=O)n1)-c1cnn(C)c1CCN2C1CN(C)C1 [US20240034743, Compound 59] | < 1
COc1cc2c(cc1Nc1ncc(Br)c(Nc3ccc4nccnc4c3P(C)(C)=S)n1)-c1cnn(C)c1CCN2C1CC2(C1)CN(C)C2 [US20240034743, Compound 93] | < 1
COc1cc2c(cc1Nc1ncc(C)c(Nc3ccc4nccnc4c3P(C)(C)=O)n1)-c1cnn(C)c1CCN2C(C)C [US20240034743, Compound 85] | < 1
CCN1CCc2c(cnn2C)-c2cc(Nc3ncc(Br)c(Nc4ccc5nccnc5c4NS(C)(=O)=O)n3)c(OC)cc21 [US20240034743, Compound 139] | < 1
COc1cc2c(cc1Nc1ncc(Br)c(Nc3ccc4nccnc4c3P(C)(C)=O)n1)-c1cnn(C)c1CCN2C1CN(C(C)C)C1 [US20240034743, Compound 63] | < 1
COc1cc2c(cc1Nc1ncc(Br)c(Nc3ccc4nccnc4c3NS(C)(=O)=O)n1)-c1cnn(C)c1CCN2 [US20240034743, Compound 114] | < 1

These molecules were tested against Epidermal growth factor receptor [L858R,T790M,C797S] (Homo sapiens, UniProt P00533, C797S/L858R/T790M) (assay: Not found).
Chain of Epidermal growth factor receptor [L858R,T790M,C797S] (P00533 25-1210 T790M/C797S/L858R limits assumed): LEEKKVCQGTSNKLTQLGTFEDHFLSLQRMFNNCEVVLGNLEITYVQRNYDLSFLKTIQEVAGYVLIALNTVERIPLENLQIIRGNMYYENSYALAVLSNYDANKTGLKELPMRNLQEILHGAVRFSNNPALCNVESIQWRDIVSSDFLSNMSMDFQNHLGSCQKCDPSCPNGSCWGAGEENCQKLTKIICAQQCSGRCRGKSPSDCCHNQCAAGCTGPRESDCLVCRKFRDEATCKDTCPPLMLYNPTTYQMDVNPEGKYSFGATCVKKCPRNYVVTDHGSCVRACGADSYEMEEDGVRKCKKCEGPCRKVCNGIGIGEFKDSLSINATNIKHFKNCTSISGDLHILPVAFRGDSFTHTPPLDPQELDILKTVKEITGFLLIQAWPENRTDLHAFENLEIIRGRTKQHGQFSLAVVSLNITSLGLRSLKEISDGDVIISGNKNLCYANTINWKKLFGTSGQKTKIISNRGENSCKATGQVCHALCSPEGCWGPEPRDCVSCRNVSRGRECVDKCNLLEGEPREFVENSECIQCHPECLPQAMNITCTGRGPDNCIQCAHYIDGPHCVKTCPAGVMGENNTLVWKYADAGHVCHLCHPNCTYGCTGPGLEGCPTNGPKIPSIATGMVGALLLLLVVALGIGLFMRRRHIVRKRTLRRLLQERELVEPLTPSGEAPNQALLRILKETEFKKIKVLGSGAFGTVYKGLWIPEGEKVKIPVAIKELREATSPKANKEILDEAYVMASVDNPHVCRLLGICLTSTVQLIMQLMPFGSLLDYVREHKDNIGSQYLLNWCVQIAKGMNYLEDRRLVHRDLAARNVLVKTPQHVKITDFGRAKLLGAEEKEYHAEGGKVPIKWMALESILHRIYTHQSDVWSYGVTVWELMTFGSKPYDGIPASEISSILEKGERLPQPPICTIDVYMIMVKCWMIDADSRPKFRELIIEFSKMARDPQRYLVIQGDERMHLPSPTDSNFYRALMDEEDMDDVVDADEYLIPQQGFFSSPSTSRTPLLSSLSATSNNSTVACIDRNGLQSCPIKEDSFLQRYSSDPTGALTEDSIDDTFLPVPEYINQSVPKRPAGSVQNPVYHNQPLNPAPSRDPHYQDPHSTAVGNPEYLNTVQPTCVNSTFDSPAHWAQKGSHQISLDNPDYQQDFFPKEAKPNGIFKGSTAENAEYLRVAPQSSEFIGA
Text: Not found

SMILES | IC50 [nM]
COc1cc2c(cc1Nc1ncc(Br)c(Nc3ccccc3P(C)(C)=O)n1)-c1cnn(C)c1CC=C2 [US20240034743, Compound 40] | < 1
COc1cc2c(cc1Nc1ncc(C(F)(F)F)c(Nc3ccccc3P(C)(C)=O)n1)-c1cnn(C)c1CCN2C [US20240034743, Compound 26] | < 1
COc1cc2c(cc1Nc1nc(Nc3ccccc3P(C)(C)=O)c3sccc3n1)-c1cnn(C)c1CCN2C [US20240034743, Compound 58] | < 1
COc1cc2c(cc1Nc1ncc(Br)c(Nc3ccc4nccnc4c3P(C)(C)=O)n1)-c1cnn(C)c1CCN2C [US20240034743, Compound 1] | < 1
COc1nc2c(cc1Nc1ncc(Br)c(Nc3ccccc3P(C)(C)=O)n1)-c1cnn(C)c1CCN2 [US20240034743, Compound 51] | < 1
COc1cc2c(cc1Nc1ncc(Br)c(Nc3ccccc3N(C(C)C)S(C)(=O)=O)n1)-c1cnn(C)c1CCN2C(C)C [US20240034743, Compound 124] | > 1000
COc1cc2c(cc1Nc1ncc(Br)c(Nc3ccc4nccnc4c3P(C)(C)=O)n1)-c1cnn(C)c1CCN2C1CCN(C)CC1 [US20240034743, Compound 62] | < 1
COc1cc2c(cc1Nc1ncc(Br)c(Nc3ccc4nccnc4c3P(C)(C)=O)n1)-c1cnn(C)c1CN(C)C2=O [US20240034743, Compound 9] | < 1
CNS(=O)(=O)c1ccccc1Nc1nc(Nc2cc3c(cc2OC)N(C(C)C)CCc2c-3cnn2C)ncc1Br [US20240034743, Compound 127] | > 1000
COc1nc2c(cc1Nc1ncc(Br)c(Nc3ccccc3P(C)(C)=O)n1)-c1cnn(C)c1CCN2C [US20240034743, Compound 79] | < 1
COc1cc2c(cc1Nc1ncc(Br)c(Nc3ccc4nccnc4c3P(C)(C)=O)n1)-c1cnn(C)c1CCN2C1CCCN(C)C1 (stereo not given) [US20240034743, Compound 84] | < 1
COc1cc2c(cc1Nc1ncc(Br)c(Nc3ccccc3P(C)(C)=O)n1)-c1cnn(C)c1CCN2C1COC1 [US20240034743, Compound 64] | < 1
COc1cc2c(cc1Nc1ncc(Br)c(Nc3ccccc3P(C)(C)=O)n1)-c1cnnn1CCN2C [US20240034743, Compound 48] | < 1
COc1cc2c(cc1Nc1ncc(Br)c(Nc3ccccc3P(C)(C)=O)n1)-c1cnn(C)c1CCC2N (stereo not given) [US20240034743, Compound 50] | < 1
COc1cc2c(cc1Nc1ncc(Br)c(Nc3ccccc3P(C)(C)=O)n1)-c1ccnn1CCN2C [US20240034743, Compound 29] | < 1
COc1cc2c(cc1Nc1ncc(Br)c(Nc3ccc4nccnc4c3P(C)(C)=O)n1)-c1cnn(C)c1CCN2C1CCOCC1 [US20240034743, Compound 88] | < 1
COc1cc2c(cc1Nc1ncc(Br)c(Nc3ccc4nccnc4c3P(C)(C)=O)n1)-c1cnn(C)c1CCN2C(C)=O [US20240034743, Compound 15] | < 1
COc1cc2c(cc1Nc1ncc(Br)c(Nc3ccccc3P(C)(C)=O)n1)-c1cnn(C)c1COC2 [US20240034743, Compound 46] | < 1
COc1cc2c(cc1Nc1ncc(Br)c(Nc3ccc4nccnc4c3P(C)(C)=O)n1)-c1cnn(C)c1CCN2C1CC2(C1)CN(C(C)C)C2 [US20240034743, Compound 90] | < 1
COc1cc2c(cc1Nc1ncc(Br)c(Nc3ccccc3P(C)(C)=O)n1)-c1cnn(C)c1CNC2 [US20240034743, Compound 49] | < 1
COc1cc2c(cc1Nc1ncc(Br)c(Nc3ccccc3P(C)(C)=O)n1)-c1cnc(C)n1CCN2C [US20240034743, Compound 55] | < 1
COc1cc2c(cc1Nc1ncc(Br)c(Nc3ccccc3P(C)(C)=O)n1)-c1cnn(C)c1CCN2C1CN(CCF)C1 [US20240034743, Compound 69] | < 1
COc1cc2c(cc1Nc1ncc(Br)c(Nc3ccc4nccnc4c3P(C)(C)=S)n1)-c1cnn(C)c1CCN2C1CCN(C)CC1 [US20240034743, Compound 76] | < 1
CCn1ncc2c1CCN(C)c1cc(OC)c(Nc3ncc(Br)c(Nc4ccccc4P(C)(C)=O)n3)cc1-2 [US20240034743, Compound 39] | < 1
COc1cc2c(cc1Nc1ncc(Br)c(Nc3cccc4c3NS(=O)(=O)C4)n1)-c1cnn(C)c1CCN2C(C)C [US20240034743, Compound 132] | < 1
COc1cc2c(cc1Nc1ncc(Br)c(Nc3ccccc3P(C)(C)=O)n1)-c1cnn(C)c1CCN2CC(F)(F)F [US20240034743, Compound 73] | < 1
COc1cc2c(cc1Nc1ncc(Br)c(Nc3ccccc3NS(C)(=O)=O)n1)-c1cnn(C)c1CCN2C [US20240034743, Compound 32] | < 1
COc1cc2c(cc1Nc1ncc(Br)c(Nc3ccccc3P(C)(C)=O)n1)-c1cnn(C)c1CCC2 [US20240034743, Compound 38] | < 1
